The assay deals with T1, Pteridine reductase (Trypanosoma brucei brucei, UniProt O76290).
T1 sequence (O76290 whole entry): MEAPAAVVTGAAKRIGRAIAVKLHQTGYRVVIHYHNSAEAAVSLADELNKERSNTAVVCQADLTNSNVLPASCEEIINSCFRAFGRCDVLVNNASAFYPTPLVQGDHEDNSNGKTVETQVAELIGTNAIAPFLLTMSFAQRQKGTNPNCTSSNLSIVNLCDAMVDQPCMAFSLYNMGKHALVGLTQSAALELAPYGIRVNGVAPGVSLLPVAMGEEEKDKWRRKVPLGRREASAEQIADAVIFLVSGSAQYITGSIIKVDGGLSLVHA
As to the kind of experiment: PTR1 Activity Assay. The note with it: pH 6; 23 °C. How it is done:
TbPTR1 activity was measured in 96-well microtiter plates via reduction of cytochrome c (cytc) as a result of the enzymatic production of tetrahydrobiopterin (H4B). Enzyme activity was monitored by reading absorbance at 550 nm within the linear phase of reaction. Ki (app) values were calculated using a modified Morrison equation.

As usually defined, the Ki is a dissociation constant, usually derived from enzyme kinetics or from competition with a known ligand. Higher therefore signals weaker binding. `CCn1c(N)nc2ccccc21` [2-aminobenzimidazole deriv., 7] registered a Ki greater than 200 µM.

The values above are taken from BindingDB's records for doi:10.1021/jm900414x (University of Dundee, 2009).
